Measured values reported in patent publication US11051515B2, “3-acyl-benzamides and their use as herbicides” (Bayer Aktiengesellschaft, priority 2017, dated 2021).

How the values were obtained:
CYPES = assay: Post-emergence action against CYPES; format: in vivo, Cyperus esculentus; details: for pest or weed control at 80 g/ha: Cyperus esculentus, 504 h, post-emergence, dosage 80 g/ha, visual assessment about 3 weeks after treatment vs untreated controls, read-out: Post-emergence action against CYPES (herbicidal action in percent)
In short: (§1)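 Post-emergence foliar spray on greenhouse plants at the one-leaf stage, using wettable-powder or emulsion-concentrate formulations in water (600 to […], plus 0.2% wetting agent). Damage scored by eye roughly 3 weeks later against untreated plants: 0% = like control, 100% = dead.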

POLCO [1] = assay: Pre-emergence action against POLCO; format: in vivo, Polygonum convolvulus; details: for Herbicidal efficacy against POLCO: 80 g of a.i./ha; for pest or weed control at 320 g/ha: Fallopia convolvulus, 504 h, Dosage 320 g/ha, pre-emergence
In short: (§2)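 Seeds sown in sandy loam in wood-fiber pots and covered with soil. Greenhouse growth; visual damage scored after 3 weeks versus untreated controls (100% = dead, 0% = like control).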

AVEFA [2] = assay: Pre-emergence action against AVEFA; format: in vivo, Avena fatua; details: Avena fatua, 504 h, dosage 320 g/ha, scored visually after 3 weeks vs untreated controls, read-out: Pre-emergence action against AVEFA (herbicidal activity)
In short: as §2

MATIN = assay: Pre-emergence action against MATIN; format: in vivo, Matricaria inodora; details: for pest or weed control at 320 g/ha: Tripleurospermum inodorum, 504 h, Dosage 320 g/ha, pre-emergence
In short: as §2

AMARE [3] = assay: Pre-emergence action against AMARE; format: in vivo, Amaranthus retroflexus; details: for pest or weed control at 320 g/ha: Amaranthus retroflexus, 504 h, pre-emergence, dosage 320 g/ha, scored visually after 3 weeks vs untreated controls, read-out: Pre-emergence action against AMARE (herbicidal activity); for Herbicidal efficacy against AMARE: Table V3, pre-emergence, 80 g of a.i./ha
In short: as §2

ECHCG = assay: Pre-emergence action against ECHCG; format: in vivo, Echinochloa crus-galli; details: for pest or weed control at 320 g/ha: Echinochloa crus-galli, 504 h, pre-emergence, dosage 320 g/ha, scored visually after 3 weeks vs untreated controls, read-out: Pre-emergence action against ECHCG (herbicidal activity); for Herbicidal efficacy against ECHCG: Table V3, pre-emergence, 80 g of a.i./ha
In short: as §2

VIOTR [4] = assay: Pre-emergence action against VIOTR; format: in vivo, Viola tricolor; details: for pest or weed control at 320 g/ha: Viola tricolor, 504 h, Dosage 320 g/ha, pre-emergence
In short: as §2

VIOTR [5] = assay: Post-emergence action against VIOTR; format: in vivo, Viola tricolor; details: for pest or weed control at 80 g/ha: Viola tricolor, 504 h, post-emergence, dosage 80 g/ha
In short: as §1

AVEFA [6] = assay: Post-emergence action against AVEFA; format: in vivo, Avena fatua; details: for pest or weed control at 80 g/ha: Avena fatua, 504 h, post-emergence, dosage 80 g/ha, visual assessment about 3 weeks after treatment vs untreated controls, read-out: Post-emergence action against AVEFA (herbicidal action in percent)
In short: as §1

AMARE [7] = assay: Post-emergence action against AMARE; format: in vivo, Amaranthus retroflexus; details: for pest or weed control at 80 g/ha: Amaranthus retroflexus, 504 h, post-emergence, dosage 80 g/ha, visual assessment about 3 weeks after treatment vs untreated controls, read-out: Post-emergence action against AMARE (herbicidal action in percent); for Herbicidal efficacy against AMARE: 5 g of a.i./ha
In short: as §1

VERPE [8] = assay: Post-emergence action against VERPE; format: in vivo, Veronica persica; details: Veronica persica, 504 h, dosage 80 g/ha
In short: as §1

ABUTH [9] = assay: Post-emergence action against ABUTH; format: in vivo, Abutilon theophrasti; details: Abutilon theophrasti, 504 h; post-emergence, dosage 80 g/ha, visual assessment about 3 weeks after treatment vs untreated controls; read-out: Post-emergence action against ABUTH (herbicidal action in percent)
In short: as §1

ALOMY = assay: Post-emergence action against ALOMY; format: in vivo, Alopecurus myosuroides; details: for pest or weed control at 80 g/ha: Alopecurus myosuroides, 504 h, Dosage 80 g/ha, post-emergence
In short: as §1

SETVI = assay: Post-emergence action against SETVI; format: in vivo, Setaria viridis; details: for pest or weed control at 80 g/ha: Setaria viridis, 504 h, post-emergence, dosage 80 g/ha, visual assessment about 3 weeks after treatment vs untreated controls, read-out: Post-emergence action against SETVI (herbicidal action in percent)
In short: as §1

STEME [10] = assay: Pre-emergence action against STEME; format: in vivo, Stellaria media; details: for pest or weed control at 320 g/ha: Stellaria media, 504 h, Dosage 320 g/ha, pre-emergence
In short: as §2

ABUTH [11] = assay: Pre-emergence action against ABUTH; format: in vivo, Abutilon theophrasti; details: for pest or weed control at 320 g/ha: Abutilon theophrasti, 504 h, pre-emergence, dosage 320 g/ha, scored visually after 3 weeks vs untreated controls, read-out: Pre-emergence action against ABUTH (herbicidal activity)
In short: as §2

STEME [12] = assay: Post-emergence action against STEME; format: in vivo, Stellaria media; details: for pest or weed control at 80 g/ha: Stellaria media, 504 h, post-emergence, dosage 80 g/ha
In short: as §1

POLCO [13] = assay: Post-emergence action against POLCO; format: in vivo, Polygonum convolvulus; details: Fallopia convolvulus, 504 h; post-emergence, dosage 80 g/ha
In short: as §1

VERPE [14] = assay: Pre-emergence action against VERPE; format: in vivo, Veronica persica; details: for pest or weed control at 320 g/ha: Veronica persica, 504 h, Dosage 320 g/ha, pre-emergence
In short: as §2

[15] = Table V18, post-emergence, 20 g of a.i./ha
[16] = Table V7, pre-emergence, 20 g of a.i./ha
[17] = Table V3, pre-emergence, 80 g of a.i./ha
[18] = Table V4, pre-emergence, 20 g of a.i./ha
[19] = Table V15, post-emergence, 5 g of a.i./ha
[20] = Table V2, pre-emergence, 20 g of a.i./ha

Row | SMILES | pest or weed control at 80 g/ha (CYPES) | pest or weed control at 320 g/ha (AVEFA [2]) | pest or weed control at 320 g/ha (MATIN) | pest or weed control at 320 g/ha (AMARE [3]) | pest or weed control at 320 g/ha (ECHCG) | pest or weed control at 320 g/ha (VIOTR [4]) | pest or weed control at 80 g/ha (VIOTR [5]) | pest or weed control at 80 g/ha (AVEFA [6]) | pest or weed control at 80 g/ha (AMARE [7]) | pest or weed control at 80 g/ha (VERPE [8]) | pest or weed control at 80 g/ha (ABUTH [9]) | pest or weed control at 80 g/ha (ALOMY) | pest or weed control at 80 g/ha (SETVI) | pest or weed control at 320 g/ha (STEME [10]) | pest or weed control at 320 g/ha (ABUTH [11]) | pest or weed control at 80 g/ha (STEME [12]) | pest or weed control at 320 g/ha (POLCO [1]) | pest or weed control at 80 g/ha (POLCO [13]) | pest or weed control at 320 g/ha (VERPE [14]) | also measured
1 | Cc1c(C(=O)Nc2nnnn2C)ccc(S(C)(=O)=O)c1C(=O)C1CC1 [1-9] | 80% | 80% | 100% | 100% | 100% | 100% | 100% | 100% | 90% | 100% | 90% | 100% | 100% | 80% | 100% | 100% | – | – | – | Herbicidal efficacy against CYPES (CYPES; [15]): 70; Herbicidal efficacy against POLCO (POLCO [1]; Table V6, pre-emergence): 40; Herbicidal efficacy against MATIN (MATIN; [16]): 90; Herbicidal efficacy against VIOTR (VIOTR [4]; [16]): 70; Herbicidal efficacy against VIOTR (VIOTR [4]; Table V9, pre-emergence, 80 g of a.i./ha): 100; Herbicidal efficacy against VIOTR (VIOTR [5]; Table V17, post-emergence, 5 g of a.i./ha): 100; Herbicidal efficacy against AVEFA (AVEFA [6]; [15]): 80; Herbicidal efficacy against ALOMY (ALOMY; [15]): 80; Herbicidal efficacy against SETVI (SETVI; [15]): 100; Herbicidal efficacy against ABUTH (ABUTH [11]; [16]): 100; Herbicidal efficacy against STEME (STEME [12]; [15]): 100
2 | CCCC(=O)c1c(C(F)(F)F)ccc(C(=O)Nc2nnnn2C)c1C [1-16] | – | 90% | 100% | 100% | 100% | 100% | 100% | 90% | 100% | 90% | 100% | 90% | 90% | 100% | 100% | 100% | 80% | 100% | 100% | –
3 | CSc1c(C(=O)Nc2nnnn2C)ccc(C(F)(F)F)c1C(C)=O [1-58] | 90% | 100% | 100% | 100% | 100% | 100% | 100% | 100% | 100% | 100% | 100% | 90% | 100% | 100% | 100% | 100% | 100% | – | 100% | –
4 | CC(=O)c1c(S(C)(=O)=O)ccc(C(=O)Nc2nnnn2C)c1Cl [1-127] | 80% | 90% | 100% | 100% | 100% | 100% | 100% | 80% | 100% | 100% | 90% | – | 80% | 90% | 100% | 90% | 90% | – | 100% | Herbicidal efficacy against POLCO (POLCO [1]; Table V1, pre-emergence): 70; Herbicidal efficacy against MATIN (MATIN; [17]): 90; Herbicidal efficacy against MATIN (MATIN; [18]): 70; Herbicidal efficacy against AMARE (AMARE [3]): 100; Herbicidal efficacy against ECHCG (ECHCG): 100; Herbicidal efficacy against VIOTR (VIOTR [4]; Table V1, pre-emergence, 80 g of a.i./ha): 100; Herbicidal efficacy against VIOTR (VIOTR [4]; [17]): 100; Herbicidal efficacy against VERPE (VERPE [14]; [18]): 90; Herbicidal efficacy against VIOTR (VIOTR [5]; Table V16, post-emergence, 5 g of a.i./ha): 100; Herbicidal efficacy against VIOTR (VIOTR [5]; Table V16, post-emergence, 20 g of a.i./ha): 100; Herbicidal efficacy against AMARE (AMARE [7]; Table V14, post-emergence): 100; Herbicidal efficacy against STEME (STEME [10]; [18]): 70; Herbicidal efficacy against ABUTH (ABUTH [11]; [17]): 100; Herbicidal efficacy against ABUTH (ABUTH [11]; [18]): 90
5 | Cn1nnnc1NC(=O)c1ccc(S(C)(=O)=O)c(C(=O)C2CC2)c1Cl [1-129] | 80% | 100% | 100% | 100% | 100% | 100% | 100% | 100% | 100% | 100% | 90% | 100% | 100% | 100% | 100% | 100% | 80% | – | 100% | Herbicidal efficacy against CYPES (CYPES; [19]): 60; MATIN (MATIN; [20]): 90; Herbicidal efficacy against MATIN (MATIN; [17]): 100; AMARE (AMARE [3]; [20]): 90; Herbicidal efficacy against AMARE (AMARE [3]): 100; ECHCG (ECHCG; [20]): 90; Herbicidal efficacy against ECHCG (ECHCG): 100; Herbicidal efficacy against VIOTR (VIOTR [4]; [17]): 100; VERPE (VERPE [14]; [20]): 100; Herbicidal efficacy against AVEFA (AVEFA [6]; [19]): 60; Herbicidal efficacy against AMARE (AMARE [7]; Table V15, post-emergence): 100; Herbicidal efficacy against ALOMY (ALOMY; [19]): 70; Herbicidal efficacy against SETVI (SETVI; [19]): 100; Herbicidal efficacy against ABUTH (ABUTH [11]; [17]): 100
6 | CCC(=O)c1c(C(F)F)ccc(C(=O)Nc2nnnn2C)c1Cl [1-165] | – | 100% | 100% | 100% | 100% | 100% | 90% | 90% | 90% | 90% | 90% | 90% | 100% | 100% | 100% | 100% | 90% | 100% | 100% | –
7 | Cn1nnnc1NC(=O)c1ccc(C(F)(F)F)c(C(=O)C2CC2)c1C1CC1 [1-233] | – | 100% | 100% | 100% | 100% | 100% | 90% | 90% | 90% | 100% | 100% | 90% | 90% | 100% | 100% | 90% | 80% | 90% | 100% | –
